The source of these data is ChEMBL document CHEMBL1154296, “Potent inhibitors of beta-tryptase and human leukocyte elastase based on the MCoTI-II scaffold” (J Med Chem, 2009).

Broadly, the pKi is the Ki on a negative log10 scale, so that one unit is a factor of ten.

pKi: −log10 of the molar value. Starred links: 1 amine or outer side, 2 acyl side, 3 side chain; linkers in the order of their positions; H or OH if unused. Positions of bridges follow the written chain, without caps; N, C: chain ends. Non-standard residues stand in square brackets, D forms with d. Residues, ends and D or L forms follow the SMILES beside them. X2 = N=C(N)NCCC[C@@H](C(=O)[C@H](CCC(N)=O)N[*:1])C(=O)[*:2]; X1 = NCCCC[C@@H](C(=O)[C@H](CCCCN)N[*:1])C(=O)[*:2]; X3 = O=C(NC(=O)[*:2])[C@H](CO)N[*:1]

Experiment [1] has as its target T1, Neutrophil elastase (Homo sapiens, UniProt P08246).
T1 sequence (P08246 whole entry): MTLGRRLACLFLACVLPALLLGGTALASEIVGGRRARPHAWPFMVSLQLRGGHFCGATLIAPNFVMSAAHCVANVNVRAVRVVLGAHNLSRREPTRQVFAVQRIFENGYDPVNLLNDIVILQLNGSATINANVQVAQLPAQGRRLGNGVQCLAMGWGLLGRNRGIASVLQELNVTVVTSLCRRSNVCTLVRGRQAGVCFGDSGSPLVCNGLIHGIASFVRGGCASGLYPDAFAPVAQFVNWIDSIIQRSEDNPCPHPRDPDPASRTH
The experiment can be described thus: Inhibition of human leukocyte elastase by substrate hydrolysis based fluorescence assay. To be noted: for pKi: read-out: Ki.

Experiment [2] is described as follows: Inhibition of tryptase by substrate hydrolysis based fluorescence assay.
A short description of experiment [3]: Inhibition of trypsin by substrate hydrolysis based fluorescence assay.

As for `CC[C@H](C)[C@@H]1NC(=O)[C@@H]2CSSC[C@@H]3NC(=O)[C@H](C(C)C)NC(=O)CNC(=O)CNC(=O)[C@H](CC(=O)O)NC(=O)[C@H](CO)NC(=O)CNC(=O)[C@H](CO)NC(=O)CNC(=O)[C@@H]4CSSC[C@H](NC(=O)[C@H](CC(=O)O)NC(=O)[C@H](CO)NC(=O)[C@H](CC(=O)O)NC(=O)[C@H](CCCNC(=N)N)NC(=O)[C@H](CCCNC(=N)N)NC(=O)[C@H](CSSC[C@H](NC1=O)C(=O)N[C@@H](CCCNC(=N)N)C(=O)NCC(=O)N[C@@H](CC(N)=O)C(=O)NCC(=O)N[C@@H](Cc1ccc(O)cc1)C(=O)N4)NC(=O)[C@@H](CCCNC(=N)N)C(=O)[C@H](CCC(N)=O)NC(=O)[C@H](CC(C)C)NC(=O)[C@@H]1CCCN1C(=O)[C@@H](C(C)C)NC(=O)[C@H](C)NC3=O)C(=O)N1CCC[C@H]1C(=O)NCC(=O)N[C@@H](C)C(=O)N2`, the results for the pKi in experiment [1] and in experiment [2] were 6.30 and under 4.30, respectively.
Regarding `CC[C@H](C)[C@@H]1NC(=O)[C@H](CCCCN)NC(=O)[C@@H]2CCCN2C(=O)[C@@H](NC(=O)[C@@H](N)C(C)C)CSSC[C@@H]2NC(=O)CNC(=O)[C@H](C)NC(=O)[C@H](CC(C)C)NC(=O)[C@@H]3CSSC[C@@H](C(=O)NCC(=O)N[C@@H](CO)C(=O)NCC(=O)O)NC(=O)[C@H](Cc4ccc(O)cc4)NC(=O)CNC(=O)[C@H](CC(N)=O)NC(=O)CNC(=O)[C@H](CCCNC(=N)N)NC(=O)[C@H](CSSC[C@H](NC(=O)[C@@H](CCCNC(=N)N)C(=O)[C@H](CCC(N)=O)NC(=O)[C@H](CC(C)C)NC1=O)C(=O)N[C@@H](CCCNC(=N)N)C(=O)N[C@@H](CCCNC(=N)N)C(=O)N[C@@H](CC(=O)O)C(=O)N[C@@H](CO)C(=O)N[C@@H](CC(=O)O)C(=O)N3)NC(=O)[C@H](CC(C)C)NC2=O` (H-VCPKIL[X2]CRRDSDCLAGCLCRGNGYCGSG-OH; disulfide 2-18, 8-20, 14-26), the negative-log Ki (pKi) is 7.00 in experiment [3] and 6.96 in experiment [2].
As to `CC[C@H](C)[C@@H]1NC(=O)[C@H](C)NC(=O)[C@@H]2CCCN2C(=O)[C@@H]2CSSC[C@@H]3NC(=O)[C@H](C)NC(=O)CNC(=O)[C@@H]4CCCN4C(=O)[C@@H]4CSSC[C@H](NC(=O)[C@H](Cc5ccc(O)cc5)NC(=O)CNC(=O)[C@H](CC(N)=O)NC(=O)CNC(=O)[C@H](CCCNC(=N)N)NC(=O)[C@H](CSSC[C@H](NC(=O)[C@@H](CCCNC(=N)N)C(=O)[C@H](CCC(N)=O)NC(=O)[C@H](CC(C)C)NC1=O)C(=O)N[C@@H](CCCNC(=N)N)C(=O)N[C@@H](CCCNC(=N)N)C(=O)N[C@@H](CC(=O)O)C(=O)N[C@@H](CO)C(=O)N[C@@H](CC(=O)O)C(=O)N4)NC(=O)[C@H]([C@@H](C)CC)NC3=O)C(=O)NCC(=O)N[C@@H](CO)C(=O)NCC(=O)N[C@@H](CO)C(=O)N[C@@H](CC(=O)O)C(=O)NCC(=O)NCC(=O)N[C@@H](C(C)C)C(=O)N2` (cyclo(ACICRGNGYCGSGSDGGVCPAIL[X2]CRRDSDCPG); disulfide 2-19, 4-25, 10-31), the pKi in experiment [1] was 7.49; in experiment [3], under 9.96; in experiment [2], under 4.30.
`CC[C@H](C)[C@@H]1NC(=O)[C@@H]2CSSC[C@@H]3NC(=O)[C@H](C(C)C)NC(=O)CNC(=O)CNC(=O)[C@H](CC(=O)O)NC(=O)[C@H](CO)NC(=O)CNC(=O)[C@H](CO)NC(=O)CNC(=O)[C@@H]4CSSC[C@H](NC(=O)[C@H](CC(=O)O)NC(=O)[C@H](CO)NC(=O)[C@H](CC(=O)O)NC(=O)[C@H](CCCNC(=N)N)NC(=O)[C@H](CCCNC(=N)N)NC(=O)[C@H](CSSC[C@H](NC1=O)C(=O)N[C@@H](CCCNC(=N)N)C(=O)NCC(=O)N[C@@H](CC(N)=O)C(=O)NCC(=O)N[C@@H](Cc1ccc(O)cc1)C(=O)N4)NC(=O)[C@@H](CCCNC(=N)N)C(=O)[C@H](CCC(N)=O)NC(=O)[C@H](CC(C)C)NC(=O)[C@H]([C@@H](C)CC)NC(=O)[C@H](Cc1ccccc1)NC(=O)[C@@H]1CCCN1C3=O)C(=O)N1CCC[C@H]1C(=O)NCC(=O)N[C@@H](C)C(=O)N2` (cyclo(ACICRGNGYCGSGSDGGVCPFIL[X2]CRRDSDCPG); disulfide 2-19, 4-25, 10-31): the negative logarithm of the Ki (pKi) in experiment [1] was under 5.12; in experiment [3] it was under 9.98; in experiment [2], under 4.30.
As to `CC[C@H](C)[C@@H]1NC(=O)[C@@H]2CSSC[C@@H]3NC(=O)[C@H](C(C)C)NC(=O)CNC(=O)CNC(=O)[C@H](CC(=O)O)NC(=O)[C@H](CO)NC(=O)CNC(=O)[C@H](CO)NC(=O)CNC(=O)[C@@H]4CSSC[C@H](NC(=O)[C@H](CC(=O)O)NC(=O)[C@H](CO)NC(=O)[C@H](CC(=O)O)NC(=O)[C@H](CCCNC(=N)N)NC(=O)[C@H](CCCNC(=N)N)NC(=O)[C@H](CSSC[C@H](NC1=O)C(=O)N[C@@H](CCCNC(=N)N)C(=O)NCC(=O)N[C@@H](CC(N)=O)C(=O)NCC(=O)N[C@@H](Cc1ccc(O)cc1)C(=O)N4)NC(=O)[C@@H](CCCCN)C(=O)[C@H](CCCCN)NC(=O)[C@H](CC(C)C)NC(=O)[C@H]([C@@H](C)CC)NC(=O)[C@H](CCCCN)NC(=O)[C@@H]1CCCN1C3=O)C(=O)N1CCC[C@H]1C(=O)NCC(=O)N[C@@H](C)C(=O)N2` (cyclo(ACICRGNGYCGSGSDGGVCPKIL[X1]CRRDSDCPG); disulfide 2-19, 4-25, 10-31), in experiment [1], the Ki result is listed as “Not Active”. Besides, the negative logarithm of the Ki (pKi) is 10.12 in experiment [3] and 6.22 in experiment [2].
As for `CC[C@H](C)[C@@H]1NC(=O)[C@@H]2CSSC[C@@H]3NC(=O)[C@H](C(C)C)NC(=O)CNC(=O)CNC(=O)[C@H](CC(=O)O)NC(=O)[C@H](CO)NC(=O)CNC(=O)[C@H](CO)NC(=O)CNC(=O)[C@@H]4CSSC[C@H](NC(=O)[C@H](CC(=O)O)NC(=O)[C@H](CO)NC(=O)[C@H](CC(=O)O)NC(=O)[C@H](CCCNC(=N)N)NC(=O)[C@H](CCCNC(=N)N)NC(=O)[C@H](CSSC[C@H](NC1=O)C(=O)N[C@@H](CCCNC(=N)N)C(=O)NCC(=O)N[C@@H](CC(N)=O)C(=O)NCC(=O)N[C@@H](Cc1ccc(O)cc1)C(=O)N4)NC(=O)[C@@H](CCCNC(=N)N)C(=O)[C@H](CCC(N)=O)NC(=O)[C@H](CC(C)C)NC(=O)[C@@H]1CCCN1C(=O)[C@H](C(C)C)NC(=O)[C@@H]1CCCN1C3=O)C(=O)N1CCC[C@H]1C(=O)NCC(=O)N[C@@H](C)C(=O)N2` (cyclo(ACICRGNGYCGSGSDGGVCPVPL[X2]CRRDSDCPG); disulfide 2-19, 4-25, 10-31), the pKi in experiment [1] is 6.28; in experiment [2] it was under 4.30.
On to `CC[C@H](C)[C@@H]1NC(=O)[C@@H]2CSSC[C@@H]3NC(=O)[C@H](C(C)C)NC(=O)CNC(=O)NC(=O)[C@H](CO)NC(=O)CNC(=O)[C@H](CO)NC(=O)CNC(=O)[C@@H]4CSSC[C@H](NC(=O)[C@H](CC(=O)O)NC(=O)[C@H](CO)NC(=O)[C@H](CC(=O)O)NC(=O)[C@H](CCCNC(=N)N)NC(=O)[C@H](CCCNC(=N)N)NC(=O)[C@H](CSSC[C@H](NC1=O)C(=O)N[C@@H](CCCNC(=N)N)C(=O)NCC(=O)N[C@@H](CC(N)=O)C(=O)NCC(=O)N[C@@H](Cc1ccc(O)cc1)C(=O)N4)NC(=O)[C@@H](CCCNC(=N)N)C(=O)[C@H](CCC(N)=O)NC(=O)[C@H](CC(C)C)NC(=O)[C@H]([C@@H](C)CC)NC(=O)[C@H](CCCCN)NC(=O)[C@@H]1CCCN1C3=O)C(=O)N1CCC[C@H]1C(=O)NCC(=O)N[C@@H](C)C(=O)N2` (cyclo(ACICRGNGYCGSG[X3]GVCPKIL[X2]CRRDSDCPG); disulfide 2-17, 4-23, 10-29), for which the pKi in experiment [3] was 8.37; in experiment [2], 6.22.
Turning to `CC[C@H](C)[C@@H]1NC(=O)[C@H](CCCCN)NC(=O)[C@@H]2CCCN2C(=O)[C@@H]2CSSC[C@@H]3NC(=O)CNC(=O)[C@H](C)NC(=O)[C@H](CC(C)C)NC(=O)[C@@H]4CSSC[C@H](NC(=O)[C@H](Cc5ccc(O)cc5)NC(=O)CNC(=O)[C@H](CC(N)=O)NC(=O)CNC(=O)[C@H](CCCNC(=N)N)NC(=O)[C@H](CSSC[C@H](NC(=O)[C@@H](CCCNC(=N)N)C(=O)[C@H](CCC(N)=O)NC(=O)[C@H](CC(C)C)NC1=O)C(=O)N[C@@H](CCCNC(=N)N)C(=O)N[C@@H](CCCNC(=N)N)C(=O)N[C@@H](CC(=O)O)C(=O)N[C@@H](CO)C(=O)N[C@@H](CC(=O)O)C(=O)N4)NC(=O)[C@H](CC(C)C)NC3=O)C(=O)NCC(=O)N[C@@H](CO)C(=O)NCC(=O)N[C@@H](C(C)C)C(=O)N2` (cyclo(AGCLCRGNGYCGSGVCPKIL[X2]CRRDSDCL); disulfide 3-16, 5-22, 11-28), the negative logarithm of the Ki (pKi) was 7.32 in experiment [3] and 7.48 in experiment [2].
As for `CC[C@H](C)[C@@H]1NC(=O)[C@H](CCCNC(=N)N)NC(=O)[C@@H]2CCCN2C(=O)[C@@H]2CSSC[C@@H]3NC(=O)CNC(=O)[C@H](C)NC(=O)[C@H](CC(C)C)NC(=O)[C@@H]4CSSC[C@H](NC(=O)[C@H](Cc5ccc(O)cc5)NC(=O)CNC(=O)[C@H](CC(N)=O)NC(=O)CNC(=O)[C@H](CCCNC(=N)N)NC(=O)[C@H](CSSC[C@H](NC(=O)[C@@H](CCCNC(=N)N)C(=O)[C@H](CCC(N)=O)NC(=O)[C@H](CC(C)C)NC1=O)C(=O)N[C@@H](CCCNC(=N)N)C(=O)N[C@@H](CCCNC(=N)N)C(=O)N[C@@H](CC(=O)O)C(=O)N[C@@H](CO)C(=O)N[C@@H](CC(=O)O)C(=O)N4)NC(=O)[C@H](CC(C)C)NC3=O)C(=O)NCC(=O)N[C@@H](CO)C(=O)NCC(=O)N[C@@H](C(C)C)C(=O)N2` (cyclo(AGCLCRGNGYCGSGVCPRIL[X2]CRRDSDCL); disulfide 3-16, 5-22, 11-28), the figures for the pKi in experiment [3] and in experiment [2] were 8.06 and 7.55, respectively.
